In patent US11104674B2 (Hoffmann-La Roche Inc., priority 2016, dated 2021) one finds IC50 data, which are given here for 27 molecules.

Each structure is given as a SMILES string.

For the assay, the system named is HBsAg. Put plainly: HBsAg assay (chemiluminescence immunoassay of secreted HBsAg). The assay is classed as cell-based, HBV. Particulars: HepG2.2.15 cells, CLIA of culture supernatant. As for the experimental part: HepG2.2.15 cells (Acs et al. Proc Natl Acad Sci USA, 84, (1987), 4641-4), a constitutively HBV-expressing cell line were cultured in DMEM+Glutamax-I medium (Invitrogen, Carlsbad, Calif., USA), supplemented with 10% fetal bovine serum (Invitrogen) and G418 (Invitrogen) at a final concentration of 200 mg/L and maintained in 5% CO2 at 37° C.
HepG2.2.15 cells were seeded in duplicate into white, 96-well plates at 1.5×10^4 cells/well. The cells were treated with a three-fold serial dilution series of the compounds in DMSO. The final DMSO concentration in all wells was 1% and DMSO was used as no drug control.
The HBsAg chemiluminescence immunoassay (CLIA) kit (Autobio Diagnostics Co., Zhengzhou, China, Catalog number: CL0310-2) was used to measure the levels of secreted HBV antigens semi-quantitatively. For the detection 50 μL/well culture supernatant was used and HBsAg was quantified using HBsAg chemiluminescence immunoassay (CLIA) kit (Autobio Diagnostics Co., Zhengzhou, China, Catalog number: CL0310-2), 50 μL of the supernatant was transferred to the CLIA assay plate and 50 μL of enzyme conjugate reagent was added into each well. The plates were sealed and gently agitated for 1 hour at room temperature. The supernatant-enzyme-mixture was discarded and wells were washed 6 times with 300 μL of PBS.
The residual liquid was removed by plating the CLIA plate right side down on absorbent tissue paper. 25 μL of substrates A and B were added to each well. Luminance was measured using a luminometer (Mithras LB 940 Multimode Microplate Reader) after 10 minutes incubation. Dose-response curves were generated and the IC50 value was extrapolated by using the E-WorkBook Suite (ID Business Solutions Ltd., Guildford, UK). The IC50 was defined as the compound concentration (or conditioned media log dilution) at which HBsAg secretion was reduced by 50% compared to the no drug control.
The compounds according to formula I were tested for their capacity to inhibit HBsAg as described herein.

Setting [1] is: Hepatitis B virus, HepG2.2.15, HBsAg secretion.

As a reminder, the IC50 is the concentration needed to halve the response being measured. Lower therefore signals greater potency. Turning to `CC1c2cnc(-c3ncccn3)nc2CCN1c1cc(N2CCN(S(C)(=O)=O)CC2)cc(F)n1` (single isomer, unassigned) [Example 98, (+)-6-[6-Fluoro-4-(4-methylsulfonylpiperazin-1-yl)-2-pyridyl]-5-methyl-2-pyrimidin-2-yl-7,8-dihydro-5H-pyrido[4,3-d]pyrimidine], half-maximal inhibition (HBsAg secretion) (IC50) was put at 410 nM.

`CC1c2cnc(-c3ncccn3)nc2CCN1c1cc(NCCCCCC(=O)O)cc(F)n1` (stereo not drawn) [Example 1, 6-[[2-fluoro-6-(5-methyl-2-pyrimidin-2-yl-7,8-dihydro-5H-pyrido[4,3-d]pyrimidin-6-yl)-4-pyridyl]amino]hexanoic acid] had an IC50 under setting [1] of 1500 nM.

`CC1c2cnc(-c3ncccn3)nc2CCN1c1cc(F)cc(NCCCCCC(=O)O)n1` (stereo not drawn) [Example 2, 6-[[4-fluoro-6-(5-methyl-2-pyrimidin-2-yl-7,8-dihydro-5H-pyrido[4,3-d]pyrimidin-6-yl)-2-pyridyl]amino]hexanoic acid] registered an IC50 under setting [1] of 155 nM.

`CC1c2cnc(-c3ncccn3)nc2CCN1c1cc(NC(=O)CO)cc(F)n1` (stereo not drawn) [Example 3, N-[2-Fluoro-6-(5-methyl-2-pyrimidin-2-yl-7,8-dihydro-5H-pyrido[4,3-d]pyrimidin-6-yl)-4-pyridyl]-2-hydroxy-acetamide] showed an IC50 under setting [1] of 60 nM.

Consider `CC1CN(c2cc(F)nc(N3CCc4nc(-c5ncccn5)ncc4C3C)c2)CCO1` (stereo not drawn) [Example 4, 4-[2-fluoro-6-(5-methyl-2-pyrimidin-2-yl-7,8-dihydro-5H-pyrido[4,3-d]pyrimidin-6-yl)-4-pyridyl]-2-methyl-morpholine], for which, under setting [1], the IC50 came out at 8 nM. This IC50 lies about 7.5-fold lower than the previous one.

Regarding `CC1CN(c2cc(F)cc(N3CCc4nc(-c5ncccn5)ncc4C3C)n2)CCO1` (stereo not drawn) [Example 5, 4-[4-fluoro-6-(5-methyl-2-pyrimidin-2-yl-7,8-dihydro-5H-pyrido[4,3-d]pyrimidin-6-yl)-2-pyridyl]-2-methyl-morpholine], under setting [1], the IC50 amounted to 20 nM.

Turning to `CCC1CN(c2cc(F)nc(N3CCc4nc(-c5ncccn5)ncc4C3C)c2)CCO1` (stereo not drawn) [Example 6, 2-ethyl-4-[2-fluoro-6-(5-methyl-2-pyrimidin-2-yl-7,8-dihydro-5H-pyrido[4,3-d]pyrimidin-6-yl)-4-pyridyl]morpholine], the IC50 under setting [1] amounted to 9 nM.

In the case of `CCC1CN(c2cc(F)cc(N3CCc4nc(-c5ncccn5)ncc4C3C)n2)CCO1` (stereo not drawn) [Example 7, 2-ethyl-4-[4-fluoro-6-(5-methyl-2-pyrimidin-2-yl-7,8-dihydro-5H-pyrido[4,3-d]pyrimidin-6-yl)-2-pyridyl]morpholine], under setting [1], 42 nM corresponded to half-maximal inhibition (IC50).

Turning to `CC1c2cnc(-c3ncccn3)nc2CCN1c1cc(N2CCOC(C)(C)C2)cc(F)n1` (stereo not drawn) [Example 8, 4-[2-fluoro-6-(5-methyl-2-pyrimidin-2-yl-7,8-dihydro-5H-pyrido[4,3-d]pyrimidin-6-yl)-4-pyridyl]-2,2-dimethyl-morpholine], the 50% inhibitory concentration (IC50) under setting [1] turned out to be 11 nM.

Take `CC1c2cnc(-c3ncccn3)nc2CCN1c1cc(F)cc(N2CCOC(C)(C)C2)n1` (stereo not drawn) [Example 9, 4-[4-fluoro-6-(5-methyl-2-pyrimidin-2-yl-7,8-dihydro-5H-pyrido[4,3-d]pyrimidin-6-yl)-2-pyridyl]-2,2-dimethyl-morpholine]: the IC50 under setting [1] is 29 nM. Compared with the last molecule, the IC50 is about 2.6-fold higher.

For the molecule `CC1c2cnc(-c3ncccn3)nc2CCN1c1cc(N2C3CCC2COC3)cc(F)n1` (stereo not drawn) [Example 10, 8-[2-fluoro-6-(5-methyl-2-pyrimidin-2-yl-7,8-dihydro-5H-pyrido[4,3-d]pyrimidin-6-yl)-4-pyridyl]-3-oxa-8-azabicyclo[3.2.1]octane], the IC50 under setting [1] came out at 39 nM.

On to `CC1c2cnc(-c3ncccn3)nc2CCN1c1cc(F)cc(N2C3CCC2COC3)n1` (stereo not drawn) [Example 11, 8-[4-fluoro-6-(5-methyl-2-pyrimidin-2-yl-7,8-dihydro-5H-pyrido[4,3-d]pyrimidin-6-yl)-2-pyridyl]-3-oxa-8-azabicyclo[3.2.1]octane], for which, under setting [1], inhibition was half-maximal at 188 nM (IC50).

Regarding `CC1c2cnc(-c3ncccn3)nc2CCN1c1cc(N2CCC3(CCOC3)C2)cc(F)n1` (stereo not drawn) [Example 12, 7-[2-fluoro-6-(5-methyl-2-pyrimidin-2-yl-7,8-dihydro-5H-pyrido[4,3-d]pyrimidin-6-yl)-4-pyridyl]-2-oxa-7-azaspiro[4.4]nonane], the midpoint of inhibition under setting [1], the IC50, lay at 8 nM.

Turning to `COCC1CN(c2cc(F)nc(N3CCc4nc(-c5ncccn5)ncc4C3C)c2)CCO1` (stereo not drawn) [Example 14, 4-[2-fluoro-6-(5-methyl-2-pyrimidin-2-yl-7,8-dihydro-5H-pyrido[4,3-d]pyrimidin-6-yl)-4-pyridyl]-2-(methoxymethyl)morpholine], the IC50 under setting [1] stood at 17 nM.

`COCC1CN(c2cc(F)cc(N3CCc4nc(-c5ncccn5)ncc4C3C)n2)CCO1` (stereo not drawn) [Example 15, 4-[4-fluoro-6-(5-methyl-2-pyrimidin-2-yl-7,8-dihydro-5H-pyrido[4,3-d]pyrimidin-6-yl)-2-pyridyl]-2-(methoxymethyl)morpholine]: the IC50 under setting [1] is 30 nM.

`CC(=O)N1CCN(c2cc(F)nc(N3CCc4nc(-c5ncccn5)ncc4C3C)c2)CC1` (stereo not drawn) [Example 16, 1-[4-[2-fluoro-6-(5-methyl-2-pyrimidin-2-yl-7,8-dihydro-5H-pyrido[4,3-d]pyrimidin-6-yl)-4-pyridyl]piperazin-1-yl]ethanone] registered an IC50 under setting [1] of 14 nM.

With `CC(=O)N1CCN(c2cc(F)cc(N3CCc4nc(-c5ncccn5)ncc4C3C)n2)CC1` (stereo not drawn) [Example 17, 1-[4-[4-fluoro-6-(5-methyl-2-pyrimidin-2-yl-7,8-dihydro-5H-pyrido[4,3-d]pyrimidin-6-yl)-2-pyridyl]piperazin-1-yl]ethanone], 15 nM corresponded to half-maximal inhibition under setting [1] (IC50).

In the case of `CC1CCN(c2cc(F)nc(N3CCc4nc(-c5ncccn5)ncc4C3C)c2)C1` (stereo not drawn) [Example 18, 6-[6-fluoro-4-(3-methylpyrrolidin-1-yl)-2-pyridyl]-5-methyl-2-pyrimidin-2-yl-7,8-dihydro-5H-pyrido[4,3-d]pyrimidine], under setting [1], it took 3 nM to reach half-maximal inhibition (IC50).

As to `CC1CCN(c2cc(F)cc(N3CCc4nc(-c5ncccn5)ncc4C3C)n2)C1` (stereo not drawn) [Example 19, 6-[4-fluoro-6-(3-methylpyrrolidin-1-yl)-2-pyridyl]-5-methyl-2-pyrimidin-2-yl-7,8-dihydro-5H-pyrido[4,3-d]pyrimidine], the 50% inhibitory concentration (IC50) under setting [1] came out at 11 nM.

The molecule `COC1CCN(c2cc(F)cc(N3CCc4nc(-c5ncccn5)ncc4C3C)n2)C1` (stereo not drawn) [Example 21, 6-[4-fluoro-6-(3-methoxypyrrolidin-1-yl)-2-pyridyl]-5-methyl-2-pyrimidin-2-yl-7,8-dihydro-5H-pyrido[4,3-d]pyrimidine] returned an IC50 under setting [1] of 13 nM.

Regarding `CC1c2cnc(-c3ncccn3)nc2CCN1c1cc(N2CCC(F)(F)C2)cc(F)n1` (stereo not drawn) [Example 22, 6-[4-(3,3-difluoropyrrolidin-1-yl)-6-fluoro-2-pyridyl]-5-methyl-2-pyrimidin-2-yl-7,8-dihydro-5H-pyrido[4,3-d]pyrimidine], the IC50 under setting [1] was 4 nM.

Molecule `CC1c2cnc(-c3ncccn3)nc2CCN1c1cc(F)cc(N2CCC(F)(F)C2)n1` (stereo not drawn) [Example 23, 6-[6-(3,3-difluoropyrrolidin-1-yl)-4-fluoro-2-pyridyl]-5-methyl-2-pyrimidin-2-yl-7,8-dihydro-5H-pyrido[4,3-d]pyrimidine] showed a 50% inhibitory concentration (IC50) under setting [1] of 5 nM.

On to `CC1c2cnc(-c3ncccn3)nc2CCN1c1cc(N2CCOC(CO)C2)cc(F)n1` (stereo not drawn) [Example 24, [4-[2-fluoro-6-(5-methyl-2-pyrimidin-2-yl-7,8-dihydro-5H-pyrido[4,3-d]pyrimidin-6-yl)-4-pyridyl]morpholin-2-yl]methanol], for which the IC50 under setting [1] was determined as 38 nM. Compared with the last molecule, the IC50 is about 7.6-fold higher.

`CC1c2cnc(-c3ncccn3)nc2CCN1c1cc(F)cc(N2CCOC(CO)C2)n1` (stereo not drawn) [Example 25, [4-[4-fluoro-6-(5-methyl-2-pyrimidin-2-yl-7,8-dihydro-5H-pyrido[4,3-d]pyrimidin-6-yl)-2-pyridyl]morpholin-2-yl]methanol] displayed an IC50 under setting [1] of 46 nM.

The molecule `CC1c2cnc(-c3ncccn3)nc2CCN1c1cc(N2CCOC(C(=O)O)C2)cc(F)n1` (stereo not drawn) [Example 26, 4-[2-fluoro-6-(5-methyl-2-pyrimidin-2-yl-7,8-dihydro-5H-pyrido[4,3-d]pyrimidin-6-yl)-4-pyridyl]morpholine-2-carboxylic acid] gave an IC50 under setting [1] of 2320 nM. This IC50 is about 50-fold higher than that of the molecule before.

Molecule `CC1c2cnc(-c3ncccn3)nc2CCN1c1cc(F)cc(N2CCOC(C(=O)O)C2)n1` (stereo not drawn) [Example 27, 4-[4-fluoro-6-(5-methyl-2-pyrimidin-2-yl-7,8-dihydro-5H-pyrido[4,3-d]pyrimidin-6-yl)-2-pyridyl]morpholine-2-carboxylic acid] returned an IC50 under setting [1] of 3760 nM.

As to `CC1c2cnc(-c3ncccn3)nc2CCN1c1cc(N2CCOC(CC(=O)O)C2)cc(F)n1` (stereo not drawn) [Example 28, 2-[4-[2-fluoro-6-(5-methyl-2-pyrimidin-2-yl-7,8-dihydro-5H-pyrido[4,3-d]pyrimidin-6-yl)-4-pyridyl]morpholin-2-yl]acetic acid], under setting [1], the 50% inhibitory concentration (IC50) was found to be 1820 nM. This IC50 is about 2.1-fold lower than that of the molecule before.
